System: GST-tagged TRPM6-(1730–end) Q1832K
Test: Peptide pull-down, Q1832K mutant
Type: binding, human
Details: HEK-293 lysate, 3 μg peptide, 4°C, anti-GST immunoblot
Procedure: The peptides biotin-C6-[…]-TIPFTPVQLFAGEEITV (wild-type) and biotin-C6-LKSPQE-[…] (mutant) were purchased from GL Biochem. For a peptide pull-down, 1–5 mg of lysate was incubated with 3 μg of the respective peptide for 10 min at 4°C under gentle agitation, followed by 5 min of incubation with 10–20 μl of streptavidin beads at 4°C. The immunoprecipitates were washed three times with lysis buffer containing 0.15 M NaCl and then twice with buffer A. Proteins were eluted by resuspending washed immunoprecipitates in 30 μl of SDS sample buffer. […]
Figure 3 Analysis of the dimerization pocket residues (A) Structural model of TRPM6 based on TRPM7 α-kinase depicting the binding of Leu^1718 and Leu^1721 to other residues in the α-kinase domain. […] The samples were analysed by immunoblotting with anti-GST antibody (top panel). […] (C) Fluorescence polarization analysis of the dimerization motif peptide with E. coli purified GST-tagged TRPM6-(1730–end) and indicated mutants. […] Proteins were separated by SDS/PAGE, stained with Coomassie Blue (top and middle panels) and MBP phosphorylation was detected by autoradiography (bottom panel). […] Proteins were separated by SDS/PAGE, stained with Coomassie Blue (top and middle gels) and MBP phosphorylation was detected by autoradiography (bottom gel). […]

biotin-C6-LKSPQEPHHHYSAIERNNLMRLSQ-TIPFTPVQLFAGEEITV [biotinylated dimerization motif peptide, biotin-C6 wild-type dimerization motif peptide; conjugated to streptavidin–Sepharose]
binding to biotinylated dimerization motif peptide (pull-down): abolished binding to the peptide

Source: publication PMC4019984, “Kinase and channel activity of TRPM6 are co-ordinated by a dimerization motif and pocket interaction” (Biochemical Journal, 2014)
